According to patent US12624050B2, “Three fused ring derivative-containing salt or crystal form and pharmaceutical composition thereof” (Shanghai Hansoh Biomedical Co., Ltd., priority 2019, dated 2026):

How the values were obtained:
[1] = Stability experiment of the solids (60°C, RH 95%, light), HPLC; type: physicochemical; settings: light condition (5000 lx) for 10 days
Description: About 2 mg of crystal form A of mesylate salt, crystal form C of sulfate salt and crystal form A of ethanesulfonate salt of (S)-2-((2-((R)-4-(difluoromethyl)-2-oxothiazolidin-3-yl)-5,6-dihydrobenzo[f]imidazo[1,2-d][1,4]oxazepin-9-yl)amino)propionamide was placed in a sealed oven at 60° C., in an unsealed container at room temperature under RH 95% (saturated aqueous KNO3 solution) and in a light box (5000 lx±500 lx) and observed for 5 days and 10 days. The content of salt was determined by HPLC using the external standard method. Changes of related substance of salt in substances related to the salts were calculated by normalization of chromatography peak area.

[2] = Hygroscopicity experiment; type: physicochemical; settings: for crystal form (XRPD pattern) after humidification and dehumidification: 1 cycle under 0 to 95% relative humidity; for hygroscopic weight gain / hygroscopicity (in words): RH 80%
Description: Crystal form A of mesylate salt, crystal form D of sulfate salt and crystal form A of ethanesulfonate salt of (S)-2-((2-((R)-4-(difluoromethyl)-2-oxothiazolidin-3-yl)-5,6-dihydrobenzo[f]imidazo[1,2-d][1,4]oxazepin-9-yl)amino)propionamide were placed in saturated water vapor with different relative humidity, so that the compound and water vapor reached a dynamic equilibrium, and the percentage of hygroscopic weight gain of the compound after the equilibrium was calculated.

[3] = Solubility experiment in different media, thermodynamic solubility at 37°C; type: physicochemical; settings: for solubility after salt formation compared with the free compound: 37°C; for solubility at 24 h: thermodynamic from solid, thermodynamic solubility
Description: About 2 mg of crystal form A of ethanesulfonate salt of (S)-2-((2-((R)-4-(difluoromethyl)-2-oxothiazolidin-3-yl)-5,6-dihydrobenzo[f]imidazo[1,2-d][1,4]oxazepin-9-yl)amino)propionamide was suspended in different media for 24 hours.

[4] = PK studies in animals of salt crystal forms, intragastric 30 mg/kg; type: in vivo; settings: 0.5% HPMC K4M suspension; for exposure in rats (in words): 30 mg/kg; for AUC(0-inf) / AUC(0-t) / Cmax / Tmax / half-life / MRT inf: rat, in vivo, po, rats, 30 mg/kg (as free compound); for MRT inf: read-out: MRT0-∞
Description: 7.2.1 Crystal form A of mesylate salt, crystal form D of sulfate salt and crystal form A of ethanesulfonate salt of (S)-2-((2-((R)-4-(difluoromethyl)-2-oxothiazolidin-3-yl)-5,6-dihydrobenzo[f]imidazo[1,2-d][1,4]oxazepin-9-yl)amino)propionamide were evenly suspended in an aqueous solution containing 0.5% HPMC (hydroxypropyl methylcellulose) K4M, and then intragastrically administered to rats in duplicate at a dose of 30 mg/kg. The amount of the compound was all converted into the amount of the same compound (S)-2-((2-((R)-4-(difluoromethyl)-2-oxothiazolidin-3-yl)-5,6-dihydrobenzo[f]imidazo[1,2-d][1,4]oxazepin-9-yl)amino)propionamide.

[5] = Polymorphic screening experiment; type: physicochemical; settings: slurrying, changing solvent and crystallization mode
Description: Organic solvents and water with a certain solubility was chosen to suspend the compound in the solvent system, and the mixture was stirred and slurried at room temperature for 1 week, and then centrifuged. The supernatant was discarded, and the solid was dried in vacuum (−0.1 Mpa) at 40° C. overnight. Then the XRPD of the solid was measured and compared with the XRPD of salt of the compound.

| SMILES | increase of new impurity compared with 0 days [1] | crystal form (XRPD pattern) after humidification and dehumidification [2] | hygroscopic weight gain [2] | hygroscopicity (in words) [2] | exposure in rats (in words) [4] | AUC(0-inf) [4] | AUC(0-t) [4] | Cmax [4] | Tmax [4] | half-life [4] | MRT inf [4] | further results |
| --- | --- | --- | --- | --- | --- | --- | --- | --- | --- | --- | --- | --- |
| CCS(=O)(=O)O.C[C@H](Nc1ccc2c(c1)OCCn1cc(N3C(=O)SC[C@H]3C(F)F)nc1-2)C(N)=O [crystal form A of ethanesulfonate salt, (S)-2-((2-((R)-4-(difluoromethyl)-2-oxothiazolidin-3-yl)-5,6-dihydrobenzo[f]imidazo[1,2-d][1,4]oxazepin-9-yl)amino)propionamide] | 0.134% | the crystal form did not change | 0.207% | slight hygroscopicity | higher exposures | 10400 ng·h/mL | 10000 ng·h/mL | 1460 ng/mL | 1 h | 3.01 h | 6.98 h | solubility after salt formation compared with the free compound ([3]; media of pH4 to 8 buffer): slightly lower solubility; solubility at 24 h ([3]; medium of pH 1, simulated gastric fluid, medium pH 1, 37° C.): 9370 µg/mL; solubility at 24 h ([3]; medium of pH 2, simulated gastric fluid, medium pH 2, 37° C.): 974 µg/mL; solubility at 24 h ([3]; medium of pH 3, aqueous buffer, medium pH 3, 37° C.): 268 µg/mL; solubility at 24 h ([3]; medium of pH 4, aqueous buffer, medium pH 4, 37° C.): 49 µg/mL; solubility at 24 h ([3]; medium of pH 5, aqueous buffer, medium pH 5, 37° C.): 20 µg/mL; solubility at 24 h ([3]; medium of pH 6, aqueous buffer, medium pH 6, 37° C.): 5 µg/mL; solubility at 24 h ([3]; medium of pH 7, aqueous buffer, medium pH 7, 37° C.): 12 µg/mL; solubility at 24 h ([3]; medium of pH 8, aqueous buffer, medium pH 8, 37° C.): 14 µg/mL; solubility after salt formation compared with the free compound ([3]; other media, most obviously in water): increased the solubility; solubility at 24 h ([3]; medium Fa (fasted-state simulated intestinal fluid, FaSSIF), 37° C.): 44 µg/mL; solubility at 24 h ([3]; medium Fe (fed-state simulated intestinal fluid, FeSSIF), 37° C.): 163 µg/mL; solubility at 24 h ([3]; medium SGF (simulated gastric fluid), 37° C.): 1150 µg/mL; solubility at 24 h ([3]; medium water, 37° C.): 608 µg/mL; crystal form obtained in polymorphic screening [5]: in crystal form A was obtained |
| CS(=O)(=O)O.C[C@H](Nc1ccc2c(c1)OCCn1cc(N3C(=O)SC[C@H]3C(F)F)nc1-2)C(N)=O [crystal form A of mesylate salt, (S)-2-((2-((R)-4-(difluoromethyl)-2-oxothiazolidin-3-yl)-5,6-dihydrobenzo[f]imidazo[1,2-d][1,4]oxazepin-9-yl)amino)propionamide] | 0.523% | the crystal form changed | 3.6% | had hygroscopicity | higher exposures | 10200 ng·h/mL | 9840 ng·h/mL | 1180 ng/mL | 1 h | 3.54 h | 6.52 h | – |
| C[C@H](Nc1ccc2c(c1)OCCn1cc(N3C(=O)SC[C@H]3C(F)F)nc1-2)C(N)=O.O=S(=O)(O)O [crystal form C of sulfate salt, (S)-2-((2-((R)-4-(difluoromethyl)-2-oxothiazolidin-3-yl)-5,6-dihydrobenzo[f]imidazo[1,2-d][1,4]oxazepin-9-yl)amino)propionamide] | 0.172% | – | – | – | – | – | – | – | – | – | – | – |
